Literature values as cited in patent US20090005297A1 (priority 2004, published 2009).

Details: nonspecific PEGylation at amine groups with one or two 5 kDa PEG

Substance: variant aprotinin (T11 D, K15R, R17L, I18H, I19L, V34Y, R39L, K46E): variant aprotinin nonspecifically PEGylated at amine groups with one or two 5 kDa PEG (Stassen 1995)
- in vivo effectiveness: not improved
